Measured values from article PMC5271370, “A High-Content Assay Enables the Automated Screening and Identification of Small Molecules with Specific ALDH1A1-Inhibitory Activity” (PLoS ONE, 2017).
Like-named read-outs stand apart in the source and are kept apart here.

Key:
Human ALDH3A1 = target: T1, Human ALDH3A1 (Homo sapiens, UniProt P30838); assay: 1,536-well enzymatic assay (NADPH fluorescence), ALDH3A1; format: biochemical
T1 construct: made in house
T1 sequence (P30838 1-453): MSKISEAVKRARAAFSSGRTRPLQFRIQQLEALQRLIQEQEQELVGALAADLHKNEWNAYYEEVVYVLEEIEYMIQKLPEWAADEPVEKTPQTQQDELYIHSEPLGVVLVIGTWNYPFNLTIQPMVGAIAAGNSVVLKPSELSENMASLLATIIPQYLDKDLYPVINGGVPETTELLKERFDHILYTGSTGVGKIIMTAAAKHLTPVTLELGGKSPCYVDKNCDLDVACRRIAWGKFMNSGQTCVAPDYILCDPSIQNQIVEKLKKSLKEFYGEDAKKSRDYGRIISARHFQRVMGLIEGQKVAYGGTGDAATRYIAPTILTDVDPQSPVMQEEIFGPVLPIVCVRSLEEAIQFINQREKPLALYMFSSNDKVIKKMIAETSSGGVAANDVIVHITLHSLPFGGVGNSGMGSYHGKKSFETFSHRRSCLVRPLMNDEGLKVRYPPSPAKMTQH
Description: To validate our optimized assay, we assembled a set of 20 previously reported ALDH inhibitors, with varying degrees of target specificity (Table 1 and S4 Fig). […] Briefly, the assay measures the dehydrogenase activity of recombinant human ALDH1A1, ALDH1A2, ALDH1A3, ALDH2 or ALDH3A1 using NAD(P)^+ and either propionaldehyde or benzaldehyde as substrates. An orthogonal resorufin-based assay format was also run with isolated ALDH1A1 to rule out potential false positives due to intrinsic compound fluorescence.
Human ALDH1A1 and ALDH3A1 were expressed and purified as described elsewhere. Human ALDH2 was purchased from Abcam (ab87415). Human ALDH1A2 and ALDH1A3 were purchased from MyBioSource (MBS1005929; San Diego, CA) and ThermoFisher (11636H07E50), respectively. The inhibitory activity of compounds against ALDHs was measured according to protocols described previously. Briefly, 3 μL of enzyme (final concentrations of 20 nM for ALDH1A1, 50 nM for ALDH1A2, 50 nM for ALDH1A3, 75 nM for ALDH2 and 5 nM for ALDH3A1) in assay buffer (100 mM HEPES pH 7.5 with 0.01% Tween 20) were dispensed into a 1,536-well solid-bottom black plate (Greiner Bio One, Monroe, NC). […] Samples were incubated (room temperature, protected from light) for 15 minutes followed by a 1 μL substrate addition of NAD^+ and Propionaldehyde (final concentrations of 1 mM and 80 μM, respectively) for ALDH1A1, 1A2, 1A3, and ALDH2 or NADP^+ and benzaldehyde (final concentrations of 1 mM and 200 μM, respectively) for ALDH3A1. Plates were centrifuged at 1,000 rpm for 15 seconds, then read in kinetic mode on a ViewLux High-throughput CCD imager (PerkinElmer, Waltham, MA) equipped with standard UV fluorescence optics (340 nm excitation, 450 nm emission) for 5 (ALDH1A1, ALDH1A2, ALDH2, ALDH3A1) or 30 (ALDH1A3) minutes. The change in fluorescence intensity over the 5- or 30-minute reaction period was normalized against no-inhibitor and no-enzyme controls and the resulting percent inhibition data were fitted to a 4-parameter Hill equation. Bay-11 7085 was used as intraplate control. To account for artifacts due to intrinsic compound fluorescence in the above spectrum, compounds were also tested in an orthogonal resorufin assay format with optics of excitation 525 nm/emission 598 nm as described before. The same parameters as the NADH assay were used for the resorufin assay, with the addition of (final) 133 μg/mL diaphorase and 37 μM resazurin to the assay solution. Same controls were used in both formats.

ALDH2 = conditions: reported ALDH target 2; read-out: Reported Biochemical IC50, ALDH2; cited from earlier work
[1] = tested on: breast cancer cells that express ALDH1A3; parameters: method as in PMID 27592281; conditions: flow cytometry, at concentrations >10 μM; cited from earlier work
[2] = validation set, 5 nM enzyme, NADP+ and benzaldehyde, read-out: Biochemical IC50 ALDH3A1

Which results are given for `COc1ccc(C(=O)CCN(C)C)cc1F` [Aldi-2]?
IC50 (Human ALDH3A1; [2]): 0.04 µM; IC50 (ALDH2): 6400 nM

Which IC50 (Human ALDH3A1; [2]) does the source give for `COc1cccc2cc(C(=O)CC3(O)C(=O)N(Cc4ccccc4)c4ccccc43)c(=O)oc12` (centres unmarked) [CID 2929292] here?
The IC50 was 21.5 µM.

For `CC(C)=CCCC(C)=CC=O` (mixture of isomers) [Citral], which “Reduction of ALDEFLUOR fluorescence” value [1] is on record?
Its value is “significantly reduced ALDEFLUOR fluorescence”.

For `Cc1cc2c(C(C)C)c(O)c(O)c(C=O)c2c(O)c1-c1c(C)cc2c(C(C)C)c(O)c(O)c(C=O)c2c1O` [Gossypol], which IC50 (Human ALDH3A1) is on record?
Its IC50 is 27 µM.

For CVT-10216, which IC50 (Human ALDH3A1; [2]) is on record?
The IC50 was 17.1 µM.

What about the IC50 (ALDH2) of the same compound?
The IC50 was 29 nM.

Which results are given for `CC(C)(C)c1ccc(S(=O)(=O)/C=C/C#N)cc1` [Bay-11-7085]?
IC50 (Human ALDH3A1; [2]): 0.54 µM; IC50 (ALDH2): 34 nM

Which IC50 (Human ALDH3A1; hits of dual cell-based screen (Table 2), read-out: Biochemical IC50 ALDH3A1) does the source give for `CC(C)N(C(=O)CCl)c1ccccc1` [Propachlor] here?
The IC50 was 50.1 µM.

With `CCOc1ccc(NCC(=O)Nc2ccc(Cl)cc2C)cc1` [CID 725345] as the compound, how does the IC50 (Human ALDH3A1; [2]) read?
The IC50 was 5.39 µM.

Which IC50 (ALDH2) does the source give for `O=c1c(-c2ccc(O)cc2)coc2cc(O[C@@H]3O[C@H](CO)[C@@H](O)[C@H](O)[C@H]3O)ccc12` [Daidzin] here?
The IC50 was 290 nM.

Which IC50 (Human ALDH3A1; [2]) does the source give for `CCN(CC)C(=S)SSC(=S)N(CC)CC` [Disulfiram] here?
Its IC50 is 1.91 µM.

For `CCN(CC)c1ccc(C=O)cc1` [DEAB, 4-N,N-diethylaminobenzaldehyde], which IC50 (Human ALDH3A1; [2]) is on record?
Its IC50 is 6.05 µM.

And the IC50 (ALDH2)?
The IC50 was 160 nM.

What about the “Reduction of ALDEFLUOR fluorescence” value [1] of the same compound?
The value was “significantly reduced ALDEFLUOR fluorescence”.

For `O=C1Nc2ccccc2C1=O` [indoline-2,3-dione], which IC50 (Human ALDH3A1; [2]) is on record?
The IC50 was 2.41 µM.
